Reference: paper PMC11854273, “Screening of the Antimelanoma Activity of Monoterpenes—In Vitro Experiments on Four Human Melanoma Lines” (Current Issues in Molecular Biology, 2025)
Where two headings read alike, the source gives them in different places.

What was measured:
[1] = tested on: A375 malignant melanoma cell line; assay: MTT cell viability assay, A375; assay type: cell-based; conditions: Homo sapiens
Method: (§1) All tested cell lines—the HaCaT cell line model of human keratinocyte cells (density: 1 × 10^4 cells/mL) and four human malignant melanoma lines (density: 2–3 × 10^4 cells/mL, depending on the cell line—were plated on microtiter plates (NEST Biotechnology, Wuxi, China). After a day (24 h) of incubation, the medium was replaced with a fresh medium to which increasing concentrations of the tested substances were added. The experimental steps of the MTT assay were previously described. Each experiment in the MTT assay was performed in triplicate to ensure the repeatability and validity of the results.
(§2) Data were presented as means ± standard errors (SEMs).

[2] = tested on: SK-MEL28 malignant melanoma cell line; assay: MTT cell viability assay, SK-MEL28; assay type: cell-based; conditions: Homo sapiens
Method: as §1, §2

[3] = tested on: FM55P malignant melanoma cell line; assay: MTT cell viability assay, FM55P; assay type: cell-based; conditions: Homo sapiens, 72 h
Method: as §1, §2

[4] = tested on: FM55M2 malignant melanoma cell line; assay: MTT cell viability assay, FM55M2; assay type: cell-based; conditions: Homo sapiens, 72 h
Method: as §1, §2

[5] = tested on: normal human keratinocytes HaCaT; assay: MTT cell viability assay, normal keratinocytes; assay type: cell-based; conditions: for IC50: Homo sapiens
Method: as §1, §2

[6] = tested on: malignant melanoma cell lines A375, SK-MEL28, FM55P, FM55M2; assay: MTT cell viability assay, four melanoma lines taken together; assay type: cell-based, human; conditions: for IC50: read-out: IC50 range depending on the melanoma cell line; for effect on melanoma cell viability (in words): four melanoma lines
Method: as §1, §2

[7] = tested on: malignant melanoma cell lines A375, SK-MEL28, FM55P, FM55M2; assay: LDH cytotoxicity assay, melanoma lines; conditions: 72 h
Method: Four malignant melanoma cell lines, FM55P, FM55M2 (ECACC, Public Health England, Porton Down, UK), A375 and SK-MEL28 (ATCC, Manassas, VA, USA) were used. The immortalized human normal keratinocyte (HaCaT; ATCC, Manassas, VA, USA) served as a reference cell line. Of note, the A375 cell line is the original and not a CRISPR-modified version of the cell line, and all the tested cell lines in this study have the BRAF V600E mutation. The experimental cell culture conditions were as follows: 37 °C in a humidified atmosphere of 95% air and 5% CO2. The culture media used were as follows: for A375—DMEM high glucose; for SK-MEL28—EMEM; and for FM55P and FM55M2—RPMI1640 (All from Sigma-Aldrich, St. Louis, MO, USA). Previous publications described in more detail the growth conditions of these cell line cultures.
Specified densities (as above) of all the studied melanoma and normal human cell line were plated on microtiter plates (NEST). […] The LDH test was carried out after 72 h of incubation with the tested terpenes according to the manufacturer’s instructions. A more detailed description of the steps of the LDH test was previously provided.
GraphPad Prism (version 8.0, San Diego, CA, USA) was used for statistical analysis of the data (from the MTT and LDH tests). The analyses were performed with a one-way ANOVA test followed by Tukey’s post hoc test. Data were presented as means ± standard errors (SEMs). The median inhibitory concentration (IC50) values for the tested terpenes were calculated automatically with a computer-assisted log-probit method using an MS Excel spreadsheet, as previously described.

[8] = tested on: mouse melanoma B16(F10) cells; conditions: B16F10; cited from earlier work
A549 line = tested on: A549 line; set-up: method as in PMID 31202132; conditions: cited from earlier work
[9] = tested on: MDA MB-231 breast cancer cell line; set-up: method as in PMID 32526880, PMID 30733560; conditions: cited from earlier work
[10] = tested on: 4T1 breast cancer cell line; set-up: method as in PMID 32526880, PMID 30733560; conditions: cited from earlier work
[11] = tested on: A549 lung cancer cell line; set-up: method as in PMID 32420353; conditions: cited from earlier work
[12] = tested on: H1299 lung cancer cell line; set-up: method as in PMID 32420353; conditions: cited from earlier work
[13] = tested on: SW620 colon cancer cell line; set-up: method as in PMID 31323842; conditions: cited from earlier work
[14] = tested on: HT29 colon cancer cell line; set-up: method as in PMID 31323842; conditions: cited from earlier work
MCF-7 breast cancer line = tested on: MCF-7 breast cancer line; set-up: method as in PMID 32772589; conditions: cited from earlier work
MDA-MB-231 cells = tested on: MDA-MB-231 cells; set-up: method as in PMID 32772589; conditions: cited from earlier work
[15] = tested on: colo-205 colon cancer cell line; conditions: cited from earlier work
[16] = tested on: Ishikawa cell line, of endometrial cancer; conditions: 24 h of incubation; cited from earlier work
A431 skin cancer line = conditions: A431, MTT assay; cited from earlier work
[17] = tested on: human cervical cancer, human lung cancer, monkey kidney cells and mouse macrophages; set-up: method as in doi:10.1590/S0044-59672007000200015; conditions: 200 µg/mL (≈1.5 mM); cited from earlier work
[18] = tested on: liver cancer cell lines and mouse melanoma B16-F10; set-up: method as in PMID 23453306; conditions: authors' conversion of the μg/mL values; cited from earlier work
[19] = tested on: B16-F10 mouse melanoma cell lines; set-up: method as in PMID 22352891; conditions: B16-F10, MTT test, cited from earlier work
[20] = A549, authors' conversion, read-out: IC50
[21] = A-375, A375, MTT assay, 72 h, mean ± SEM, read-out: IC50
[22] = SK-MEL-28, SK-MEL28, MTT assay, 72 h, mean ± SEM, read-out: IC50
[23] = FM55P, MTT assay, mean ± SEM, read-out: IC50
[24] = FM55M2, MTT assay, mean ± SEM, read-out: IC50
[25] = HaCaT, MTT assay, 72 h, mean ± SEM, read-out: IC50
[26] = range over the four human melanoma lines, MTT, 72 h

| SMILES | effect on normal keratinocyte cells (in words) ([5]; HaCaT, MTT) | effect on melanoma cell viability (in words) ([6]; MTT, 72 h) | concentration with statistically significant cytotoxicity towards melanoma cells [7] | IC50 [1, 21] [µM] | IC50 [2, 22] [µM] | IC50 [3, 23] [µM] | IC50 [4, 24] [µM] | IC50 [5, 25] [µM] | IC50 [6, 26] [µM] | concentration significantly affecting viability of normal keratinocytes ([5]; HaCaT, MTT, 72 h) [µM] | IC50 range depending on the melanoma cell line [6, 26] | further results |
| --- | --- | --- | --- | --- | --- | --- | --- | --- | --- | --- | --- | --- |
| Cc1ccc(C(C)C)cc1O [Carvacrol, carvacrol] | did not negatively affect normal human keratinocyte cells | showed a significant anti-viability effect | 50 to 650 µM |  |  |  |  |  |  |  |  | IC50 ([1]; A-375, 72 h): 60 µM; IC50 ([2]; SK-MEL-28, 72 h): 60 ± 10 µM; IC50 [3]: 60 ± 10 µM; IC50 [4]: 50 µM; concentration up to which HaCaT viability was not significantly affected ([5]; HaCaT, MTT, 72 h): ≤ 650 µM; IC50 ([5]; HaCaT, 72 h): > 650 µM; IC50 ([6]; Homo sapiens, 72 h): 50 to 60 µM; selectivity index ([6]; SI = IC50 for HaCaT / IC50 for respective melanoma cell line, MTT): above 10; IC50 [8]: 120 ± 15 µM; IC50 (A549 line; [20]): ~670 µM; IC50 (A549 line; A549): 100 µg/mL |
| CC(C)=CCC/C(C)=C/C=O [Citral, citral] | at high concentrations, it had a negative effect on normal keratinocyte cells | showed a significant anti-viability effect | above 0.2 mM | 130 ± 10 | 100 ± 10 | 90 ± 10 | 80 | 290 ± 10 | 80 to 130 |  |  | inhibition of HaCaT proliferation ([5]; 0.3 mM, MTT): up to 28%; inhibition of HaCaT proliferation ([5]; highest concentration of 0.4 mM, MTT): approximately 10%; IC50 ([9]; MDA MB-231, authors' conversion, read-out: IC50): ~135 µM; IC50 ([9]; MDA MB-231): 20.5 ± 1.41 µg/mL; IC50 ([10]; 4T1, authors' conversion, read-out: IC50): ~140 µM; IC50 ([10]; 4T1): 21.4 ± 2.82 µg/mL; IC50 [11, 20]: ~11 µM; IC50 ([11]; A549): 1.73 ± 0.37 µg/mL; IC50 ([12]; H1299, authors' conversion, read-out: IC50): ~26 µM; IC50 ([12]; H1299): 4.01 ± 0.30 µg/mL; IC50 ([13]; SW620, authors' conversion, read-out: IC50): ~148 µM; IC50 ([13]; SW620): 22.50 ± 2.50 µg/mL; IC50 ([14]; HT29, authors' conversion, read-out: IC50): ~143 µM; IC50 ([14]; HT29): 21.77 ± 0.23 µg/mL |
| CC(C)=CCCC(C)CCO (stereo not drawn) [Citronellol, citronellol] |  | showed a significant anti-viability effect | above 4.2 mM | 3630 ± 560 | 4810 ± 290 | 2450 ± 380 | 2170 ± 300 | 6270 ± 1150 | 2170 to 4810 | 1200 to 6000 |  | IC50 (MCF-7 breast cancer line): 80 µM; IC50 (MDA-MB-231 cells): 35 µM |
| CC(C)=CCC/C(C)=C/CO [Geraniol, geraniol] |  | showed a significant anti-viability effect |  | 270 ± 30 | 440 ± 30 | 330 ± 20 | 420 ± 20 | > 650 | 270 to 440 |  |  | IC50 [15]: 20 µM; IC50 [16]: 260 µM; IC50 [8]: 150 ± 19 µM; IC50 (A431 skin cancer line): 98 µM |
| C=CC(=C)CCC=C(C)C [Myrcene, myrcene] |  |  |  |  |  |  |  |  |  | 3000 | could not be determined | concentration up to which no significant inhibition of melanoma line growth ([6]; MTT, 72 h): up to 5 mM; cytotoxic activity (in words) [17]: no cytotoxic activity; IC50 [18]: 70 to 90 µM |
| CC(C)=CCC/C(C)=C\CO [Nerol, nerol] |  | Its effect was not significant |  |  |  |  |  |  |  |  | could not be determined | concentration significantly affecting viability of normal keratinocytes ([5]; human, 72 h): 650 µM; concentration significantly affecting viability of melanoma cell lines ([6]; MTT, 72 h): 0.13 to 0.65 mM |
| C=C(C)CCC[C@H](C)CCO [Rhodinol, rhodinol] |  | did not show any significant activity |  |  |  |  |  |  |  | ≥ 4800 | could not be determined | concentration significantly affecting viability of melanoma cell lines ([6]; MTT, 72 h): ≥ 4.8 mM |
| Cc1ccc(C(C)C)c(O)c1 [Thymol, thymol] | at high concentrations, it affects the viability of normal cell lines without cytotoxicity | showed a significant anti-viability effect | above 0.03 mM | 480 ± 40 | 510 ± 30 | 460 ± 50 | 530 ± 50 | > 1300 | 460 to 530 |  |  | concentration from which cytotoxicity was statistically significant ([7]; SK-MEL28 line): ≥ 30 µM; IC50 ([19]; authors' conversion, read-out: IC50): 400 µM; IC50 [19]: 60.09 µg/mL |
